# Laboratory results taken from PubChem BioAssay AID212 (DTP/NCI, 2004).
# Where “and” joins values, the source holds several entries; their conditions need not be identical. Equal values may be shown once. Inconclusive results are not listed.
# Test system: BDF1 mice, colon carcinoma 38 sc, T/C %
# Test: NCI In Vivo Anticancer Drug Screen. Data for tumor model Colon Carcinoma 38 (subcutaneous) in B6D2F1 (BDF1) mice
# Settings: endpoint: median tumor weight (est.), higher = larger tumour
# Experimental: The antitumor activity of compounds was measured in mice bearing transplantable tumors. Survival or tumor size were measured and the results are expressed as the measurement made in the treated group (T) divided by the measurement made in the vehicle treated control group (C). The tumor model used in this assay is Colon Carcinoma 38 (subcutaneous) in B6D2F1 (BDF1) mice
# [1] = dose: 200.0 mg/kg/injection, schedule: Q07DX002 (ip), vehicle: saline with Tween-80
# [2] = dose: 400.0 mg/kg/injection, schedule: Q07DX002 (ip), vehicle: saline with Tween-80
# [3] = dose: 6.25 mg/kg/injection, schedule: Q07DX002 (ip), vehicle: saline
# [4] = dose: 12.5 mg/kg/injection, schedule: Q07DX002 (ip), vehicle: saline
# [5] = dose: 25.0 mg/kg/injection, schedule: Q07DX002 (ip), vehicle: saline
# [6] = dose: 50.0 mg/kg/injection, schedule: Q07DX002 (ip), vehicle: saline
smiles,measurement,setting,value
NNC(=S)N/N=C/c1ccccn1,T/C,"dose: 3.12 mg/kg/injection, schedule: Q07DX002 (ip), vehicle: suspension in saline",84 % of control
same,T/C,"dose: 6.25 mg/kg/injection, schedule: Q07DX002 (ip), vehicle: suspension in saline",49 % of control
same,T/C,"dose: 12.5 mg/kg/injection, schedule: Q07DX002 (ip), vehicle: suspension in saline",77 % of control
same,T/C,"dose: 25.0 mg/kg/injection, schedule: Q07DX002 (ip), vehicle: suspension in saline",75 % of control
same,T/C,"dose: 50.0 mg/kg/injection, schedule: Q07DX002 (ip), vehicle: suspension in saline",64 % of control
Cc1c(-c2ccc(C3CCCCC3)cc2)nc2ccc(F)cc2c1C(=O)O,T/C,"dose: 50.0 mg/kg/injection, schedule: Q07DX002 (ip), vehicle: Klucel (hydroxypropylcellulose) (HPC)",89 % of control
same,T/C,"dose: 100.0 mg/kg/injection, schedule: Q07DX002 (ip), vehicle: Klucel (hydroxypropylcellulose) (HPC)",80 % of control
same,T/C,"dose: 200.0 mg/kg/injection, schedule: Q07DX002 (ip), vehicle: Klucel (hydroxypropylcellulose) (HPC)",116 % of control
same,T/C,"dose: 400.0 mg/kg/injection, schedule: Q07DX002 (ip), vehicle: Klucel (hydroxypropylcellulose) (HPC)",86 % of control
same,T/C,"dose: 400.0 mg/kg/injection, schedule: Q07DX002 (ip), vehicle: Klucel + Tween-80",120 % of control
same,T/C,"dose: 800.0 mg/kg/injection, schedule: Q07DX002 (ip), vehicle: Klucel (hydroxypropylcellulose) (HPC)",107 % of control
same,T/C,"dose: 800.0 mg/kg/injection, schedule: Q07DX002 (ip), vehicle: Klucel + Tween-80",80 % of control
CCCCCCC(=O)/C=C/c1cccc(OCOCC)c1,T/C,"dose: 50.0 mg/kg/injection, schedule: Q07DX002 (ip), vehicle: saline with Tween-80",122 % of control
same,T/C,"dose: 100.0 mg/kg/injection, schedule: Q07DX002 (ip), vehicle: saline with Tween-80",103 % of control
same,T/C,[1],104 % of control
same,T/C,[2],89 % of control
CC[N+](CC)(CC)CC,T/C,"dose: 1.56 mg/kg/injection, schedule: Q07DX002 (ip), vehicle: saline with Tween-80",96 % of control
same,T/C,"dose: 3.12 mg/kg/injection, schedule: Q07DX002 (ip), vehicle: saline with Tween-80",119 % of control
same,T/C,"dose: 6.25 mg/kg/injection, schedule: Q07DX002 (ip), vehicle: saline with Tween-80",86 % of control
same,T/C,"dose: 12.5 mg/kg/injection, schedule: Q07DX002 (ip), vehicle: saline with Tween-80",59 % of control
CC(=O)Oc1c(C)[nH]ccc1=O,T/C,[3],107 % of control
same,T/C,"dose: 200.0 mg/kg/injection, schedule: Q07DX002 (ip), vehicle: saline",107 % of control
CC(=O)OCC12CCC(C)=CC1OC1C(OS(C)(=O)=O)C(=O)C2(C)C12CO2 (centres undefined),T/C,"dose: 0.25 mg/kg/injection, schedule: Q07DX002 (ip), vehicle: saline",189 % of control
same,T/C,"dose: 5.0 mg/kg/injection, schedule: Q07DX002 (ip), vehicle: saline",98 % of control
same,T/C,"dose: 10.0 mg/kg/injection, schedule: Q07DX002 (ip), vehicle: saline",88 % of control
O=c1n(CC2CO2)c(=O)n(CC2CO2)n1CC1CO1 (centres undefined),T/C,[4],25 % of control
same,T/C,[5],25 % of control
same,T/C,[6],18 % of control
Cc1c(-c2ccc(-c3ccccc3F)cc2)nc2ccc(F)cc2c1C(=O)O,T/C,"dose: 5.0 mg/kg/injection, schedule: Q01DX008 (ip), vehicle: water",24 % of control
same,T/C,"dose: 10.0 mg/kg/injection, schedule: Q01DX008 (ip), vehicle: water",5 % of control
same,T/C,"dose: 20.0 mg/kg/injection, schedule: Q01DX008 (ip), vehicle: water",16 % of control
CCC(C)C(=O)OC1C(=O)OC2CC3C(C)=CC(=O)C(O)C3(C)C3C4(O)OCC23C1C(C)C4O (centres undefined),T/C,"dose: 0.5 mg/kg/injection, schedule: Q07DX002 (ip), vehicle: suspension in saline",90 % of control
same,T/C,"dose: 1.0 mg/kg/injection, schedule: Q07DX002 (ip), vehicle: suspension in saline",77 % of control
same,T/C,"dose: 2.0 mg/kg/injection, schedule: Q07DX002 (ip), vehicle: suspension in saline",58 % of control
same,T/C,"dose: 4.0 mg/kg/injection, schedule: Q07DX002 (ip), vehicle: suspension in saline",88 % of control
same,T/C,"dose: 8.0 mg/kg/injection, schedule: Q07DX002 (ip), vehicle: suspension in saline",44 % of control
OCCOCC(F)(F)F,T/C,"dose: 25.0 mg/kg/injection, schedule: Q07DX002 (ip), vehicle: saline with Tween-80",86 % of control
same,T/C,[1],120 % of control and 104 % of control
same,T/C,[2],116 % of control and 102 % of control
COc1cccc2c1C(CO)N1C(C#N)C3CC(C(=O)O)C(C1C2)N3C (centres undefined),T/C,[3],71 % of control
same,T/C,[4],45 % of control
same,T/C,[5],108 % of control
same,T/C,[6],80 % of control
same,T/C,"dose: 100.0 mg/kg/injection, schedule: Q07DX002 (ip), vehicle: saline",66 % of control
